± gives the expanded uncertainty stated by the source.
Test: molar heat capacity at constant pressure
Settings: 101.33 kPa, Crystal 1, DSC

O=[N+]([O-])[O-].O=[N+]([O-])[O-].[Ca+2] [calcium nitrate]
Settings | molar heat capacity at constant pressure [J/K/mol]
588.78 K | 184.89 ± 13
589 K | 182.82 ± 13
589.78 K | 184.99 ± 13
590 K | 182.96 ± 13
590.78 K | 185.09 ± 13
591 K | 183.01 ± 13
591.78 K | 185.18 ± 13
592 K | 183.11 ± 13
592.78 K | 185.28 ± 13
593 K | 183.23 ± 13
593.78 K | 185.38 ± 13
594 K | 183.3 ± 13
594.78 K | 185.47 ± 13
595 K | 183.39 ± 13
595.78 K | 185.57 ± 13
596 K | 183.46 ± 13
596.78 K | 185.66 ± 13
597 K | 183.59 ± 13
597.78 K | 185.76 ± 13
598 K | 183.69 ± 13
598.78 K | 185.85 ± 13
599 K | 183.86 ± 13
599.78 K | 185.95 ± 13
600 K | 183.94 ± 13
600.78 K | 186.04 ± 13
601 K | 184.09 ± 13
601.78 K | 186.13 ± 13
602 K | 184.37 ± 13
602.78 K | 186.22 ± 13
603 K | 184.48 ± 13
603.78 K | 186.31 ± 13
604 K | 184.5 ± 13
604.78 K | 186.4 ± 13
605 K | 184.57 ± 13
605.78 K | 186.49 ± 13
606 K | 184.76 ± 13
606.78 K | 186.58 ± 13
607 K | 184.8 ± 13
607.78 K | 186.67 ± 13
608 K | 184.92 ± 13
608.78 K | 186.76 ± 13
609 K | 184.95 ± 13
609.78 K | 186.85 ± 13
610 K | 185 ± 13
610.78 K | 186.93 ± 13
611 K | 185.16 ± 13
611.78 K | 187.02 ± 13
612 K | 185.17 ± 13
612.78 K | 187.1 ± 13
613 K | 185.37 ± 13
613.78 K | 187.19 ± 13
614 K | 185.43 ± 13
614.78 K | 187.28 ± 13
615 K | 185.38 ± 13
615.78 K | 187.37 ± 13
616 K | 185.46 ± 13
616.78 K | 187.46 ± 13
617 K | 185.59 ± 13
617.78 K | 187.56 ± 13
618 K | 185.67 ± 13
618.78 K | 187.65 ± 13
619 K | 185.79 ± 13
619.78 K | 187.75 ± 13
620 K | 185.94 ± 13
620.78 K | 187.84 ± 13
621 K | 185.97 ± 13
621.78 K | 187.94 ± 13
622 K | 185.98 ± 13
622.78 K | 188.03 ± 13
623 K | 186.1 ± 13
623.78 K | 188.13 ± 13
624 K | 186.22 ± 13
624.78 K | 188.23 ± 13
625 K | 186.24 ± 13
625.78 K | 188.32 ± 13
626 K | 186.32 ± 13
626.78 K | 188.42 ± 13
627 K | 186.29 ± 13
627.78 K | 188.51 ± 13
628 K | 186.36 ± 13
628.78 K | 188.61 ± 13
629 K | 186.58 ± 13
629.78 K | 188.7 ± 13
630 K | 186.72 ± 13
630.78 K | 188.8 ± 13
631 K | 186.76 ± 13
631.78 K | 188.9 ± 13
632 K | 186.86 ± 13
632.78 K | 189 ± 13
633 K | 186.9 ± 13
633.78 K | 189.1 ± 13
634 K | 187.01 ± 13
634.78 K | 189.2 ± 13
635 K | 187.13 ± 13
635.78 K | 189.3 ± 13
636 K | 187.08 ± 13
636.78 K | 189.41 ± 13
637 K | 187.29 ± 13
637.78 K | 189.51 ± 13
638 K | 187.33 ± 13
638.78 K | 189.61 ± 13
639 K | 187.55 ± 13
639.78 K | 189.71 ± 13
640 K | 187.7 ± 13
640.78 K | 189.82 ± 13
641 K | 187.58 ± 13
641.78 K | 189.92 ± 13
642 K | 187.69 ± 13
642.78 K | 190.01 ± 13
643 K | 187.72 ± 13
643.78 K | 190.11 ± 13
644 K | 187.93 ± 13
644.78 K | 190.2 ± 13
645 K | 188.1 ± 13
645.78 K | 190.29 ± 13
646 K | 188.11 ± 13
646.78 K | 190.39 ± 13
647 K | 188.18 ± 13
647.78 K | 190.49 ± 13
648 K | 188.31 ± 13
648.78 K | 190.58 ± 13
649 K | 188.36 ± 13
649.78 K | 190.69 ± 13
650 K | 188.66 ± 13
650.78 K | 190.8 ± 13
651 K | 188.76 ± 13
651.78 K | 190.9 ± 13
652 K | 188.78 ± 13
652.78 K | 191.02 ± 13
653 K | 188.91 ± 13
653.78 K | 191.13 ± 13
654 K | 188.99 ± 13
654.78 K | 191.25 ± 13
655 K | 189.03 ± 13
655.78 K | 191.36 ± 13
656 K | 189.11 ± 13
656.78 K | 191.46 ± 13
657 K | 189.18 ± 13
657.78 K | 191.57 ± 13
658 K | 189.28 ± 13
658.78 K | 191.67 ± 13
659 K | 189.43 ± 13
659.78 K | 191.77 ± 13
660 K | 189.5 ± 13
660.78 K | 191.87 ± 13
661 K | 189.61 ± 13
661.78 K | 191.96 ± 13
662 K | 189.79 ± 13
662.78 K | 192.06 ± 13
663 K | 189.99 ± 13
663.78 K | 192.15 ± 13
664 K | 190.04 ± 13
664.78 K | 192.23 ± 13
665 K | 190.04 ± 13
665.78 K | 192.32 ± 13
666 K | 190.16 ± 13
666.78 K | 192.4 ± 13
667 K | 190.23 ± 13
667.78 K | 192.49 ± 13
668 K | 190.12 ± 13
668.78 K | 192.56 ± 13
669 K | 190.21 ± 13
669.78 K | 192.64 ± 13
670 K | 190.28 ± 13
670.78 K | 192.72 ± 13
671 K | 190.33 ± 13
671.78 K | 192.79 ± 13
672 K | 190.55 ± 13
672.78 K | 192.86 ± 13
673 K | 190.57 ± 13
673.78 K | 192.94 ± 13
674 K | 190.71 ± 13
674.78 K | 193.03 ± 13
675 K | 190.83 ± 13
675.78 K | 193.12 ± 13
676 K | 190.98 ± 13
676.78 K | 193.22 ± 13
677 K | 191.19 ± 13
677.78 K | 193.31 ± 13
678 K | 191.02 ± 13
678.78 K | 193.41 ± 13
679 K | 190.93 ± 13
679.78 K | 193.5 ± 13
680 K | 191.02 ± 13
680.78 K | 193.6 ± 13
681 K | 191.22 ± 13
681.78 K | 193.69 ± 13
682 K | 191.4 ± 13
682.78 K | 193.78 ± 13
683 K | 191.29 ± 13
683.78 K | 193.87 ± 14
684 K | 191.45 ± 13
684.78 K | 193.96 ± 14
685 K | 191.66 ± 13
685.78 K | 194.03 ± 14
686 K | 191.74 ± 13
686.78 K | 194.08 ± 14
687 K | 191.8 ± 13
687.78 K | 194.13 ± 14
688 K | 191.86 ± 13
688.78 K | 194.18 ± 14
689 K | 191.92 ± 13
689.78 K | 194.23 ± 14
690 K | 192.07 ± 13
690.78 K | 194.31 ± 14
691 K | 192.16 ± 13
691.78 K | 194.39 ± 14
692 K | 192.21 ± 13
692.78 K | 194.47 ± 14
693 K | 192.34 ± 13
693.78 K | 194.54 ± 14
694 K | 192.63 ± 13
694.78 K | 194.6 ± 14
695 K | 192.66 ± 13
695.78 K | 194.65 ± 14
696 K | 192.73 ± 13
696.78 K | 194.69 ± 14
697 K | 192.85 ± 13
697.78 K | 194.72 ± 14
698 K | 192.92 ± 13
698.78 K | 194.76 ± 14
699 K | 192.96 ± 13
699.78 K | 194.82 ± 14
700 K | 193.02 ± 13
700.78 K | 194.88 ± 14
701 K | 192.93 ± 13
701.78 K | 194.97 ± 14
702 K | 193.11 ± 13
702.78 K | 195.08 ± 14
703 K | 193.19 ± 13
703.78 K | 195.21 ± 14
704 K | 193.21 ± 13
704.78 K | 195.34 ± 14
705 K | 193.35 ± 13
705.78 K | 195.47 ± 14
706 K | 193.66 ± 14
706.78 K | 195.61 ± 14
707 K | 193.92 ± 14
707.78 K | 195.75 ± 14
708 K | 194.3 ± 14
708.78 K | 195.89 ± 14
709 K | 194.69 ± 14
709.78 K | 196.04 ± 14
710 K | 194.54 ± 14
710.78 K | 196.23 ± 14
711 K | 194.48 ± 14
711.78 K | 196.47 ± 14
712 K | 194.48 ± 14
712.78 K | 196.76 ± 14
713 K | 194.61 ± 14
713.78 K | 197.06 ± 14
714.78 K | 197.32 ± 14
715.78 K | 197.53 ± 14
716.78 K | 197.7 ± 14
717.78 K | 197.7 ± 14
718.78 K | 197.46 ± 14

Reference: the NIST ThermoML archive (doi:10.1016/j.jct.2019.03.007)
